Test results as given in US20240279240A1, “HETEROCYCLIC DERIVATIVES AS JANUS KINASE INHIBITORS” (CHIESI FARMACEUTICI S.P.A., priority 2021, published 2024).

Tests used:
[1] = target: JAK 1 (Homo sapiens, UniProt P23458); experiment: Biochemical potency on JAK1, TR-FRET LANCE Ultra kinase assay (examples 1-99); details: ATP at Km (20 μM), read-out: JAK1 inhibitory activity (pIC50 class) (converted)
Description: (§1) The objective of this study was to assess the capability of compounds to inhibit all 4 JAK isoforms activity in a cell-free environment. Assay for JAK 1, JAK 2, JAK 3 and TYK2 were performed by Time-resolved fluorescence resonance energy transfer (TR-FRET) technology. It consists in the interaction of two labelled binding partners detected by the energy transfer from an excited donor to an acceptor dye and measurement of light emission by the acceptor dye. LANCE Ultra kinase assay was used. In presence of JAK 1, JAK 2, JAK 3 and TYK2 kinases and ATP (corresponding to Km), the ULight peptide substrate (LANCE Ulight-JAK-1 (Tyr1023) Peptide, Perkin Elmer, TRF0121) is phosphorylated. It is then captured by Eu-anti-phospho-substrate antibody (LANCE Eu-W1024 Anti-phosphotyrosine (PT66), Perkin Elmer, AD0069), which bring the Eu-chelate donor and ULight acceptor dyes into close proximity. Upon excitation at 320 nm, the Eu-chelate transfers its energy to the ULight dye, resulting in a fluorescent light emission at 665 nm.
(§2) Serial dilutions of compounds in pure DMSO are prepared from 10 mM DMSO stock solutions. Compounds were tested in 384-well plate for 11 consecutive 5-fold dilutions starting from 20 μM highest concentration (20 μM-[…]). 200 nL of compound were transferred from mother plate to test plate by using Mosquito (TTP labtech). Assay was performed in 384-well Perkin Elmer test plate in 20 μL assay volume (kinase reaction) and 40 μL total volume (stopping reagent and antibody detection reagents). In 10 μL of substrate solution (peptide+ATP) 30/50/20/10 nM of peptide and 20/0.7/0.2/12 μM of ATP were added for JAK 1, JAK 2, JAK 3 and TYK2 respectively. 10 μL of enzyme solution was added to kinase reaction at these concentrations: 0.15/0.083/0.025/0.144 ng/μL of JAK 1, JAK 2, JAK 3 and TYK2 respectively. After shaking and 1.5 h of incubation at r.t., 20 μL of Stop (10 μL EDTA) and Detection mixture (10 μL Europium-anti-phospho antibody, final: 0.5 nM) were added. Reading was performed after 1 h of incubation on a EnVision 2104 reader (Perkin Elmer).
(§3) Calculation of IC50 data, curves and QC analysis was performed by using Excel tool and GraphPadPrism software, v9. Briefly, individual concentration-effect curves are generated by plotting the logarithm of the tested concentration of tested compounds (X) vs. corresponding percent inhibition values (Y) using least squares (ordinary) fit. Best fit IC50 values are calculated using Log(inhibitor) vs. normalized response—Variable slope equation, where Y=100/(1+10^((Log IC50−X)*HillSlope)). QC criteria parameters (Z′, S:B, R2, HillSlope) were checked for every IC50 curve. Calculation of IC50 data, curves and QC analysis were made using Excel tools and GraphPadPrism software. QC criteria parameters: Z′≥0.5, Hill Slope range 0.5 to 5, S:B>2.

[2] = target: JAK 2 (Homo sapiens, UniProt O60674); experiment: Biochemical potency on JAK2, TR-FRET LANCE Ultra kinase assay (examples 1-99); details: ATP at Km (0.7 μM), read-out: JAK2 inhibitory activity (pIC50 class) (converted)
Description: as §1, §2, §3

[3] = target: T1, JAK 3 (Homo sapiens, UniProt P52333); experiment: Biochemical potency on JAK3, TR-FRET LANCE Ultra kinase assay (examples 1-99); details: ATP at Km (0.2 μM), read-out: JAK3 inhibitory activity (pIC50 class) (converted)
T1 sequence (P52333 1-1124): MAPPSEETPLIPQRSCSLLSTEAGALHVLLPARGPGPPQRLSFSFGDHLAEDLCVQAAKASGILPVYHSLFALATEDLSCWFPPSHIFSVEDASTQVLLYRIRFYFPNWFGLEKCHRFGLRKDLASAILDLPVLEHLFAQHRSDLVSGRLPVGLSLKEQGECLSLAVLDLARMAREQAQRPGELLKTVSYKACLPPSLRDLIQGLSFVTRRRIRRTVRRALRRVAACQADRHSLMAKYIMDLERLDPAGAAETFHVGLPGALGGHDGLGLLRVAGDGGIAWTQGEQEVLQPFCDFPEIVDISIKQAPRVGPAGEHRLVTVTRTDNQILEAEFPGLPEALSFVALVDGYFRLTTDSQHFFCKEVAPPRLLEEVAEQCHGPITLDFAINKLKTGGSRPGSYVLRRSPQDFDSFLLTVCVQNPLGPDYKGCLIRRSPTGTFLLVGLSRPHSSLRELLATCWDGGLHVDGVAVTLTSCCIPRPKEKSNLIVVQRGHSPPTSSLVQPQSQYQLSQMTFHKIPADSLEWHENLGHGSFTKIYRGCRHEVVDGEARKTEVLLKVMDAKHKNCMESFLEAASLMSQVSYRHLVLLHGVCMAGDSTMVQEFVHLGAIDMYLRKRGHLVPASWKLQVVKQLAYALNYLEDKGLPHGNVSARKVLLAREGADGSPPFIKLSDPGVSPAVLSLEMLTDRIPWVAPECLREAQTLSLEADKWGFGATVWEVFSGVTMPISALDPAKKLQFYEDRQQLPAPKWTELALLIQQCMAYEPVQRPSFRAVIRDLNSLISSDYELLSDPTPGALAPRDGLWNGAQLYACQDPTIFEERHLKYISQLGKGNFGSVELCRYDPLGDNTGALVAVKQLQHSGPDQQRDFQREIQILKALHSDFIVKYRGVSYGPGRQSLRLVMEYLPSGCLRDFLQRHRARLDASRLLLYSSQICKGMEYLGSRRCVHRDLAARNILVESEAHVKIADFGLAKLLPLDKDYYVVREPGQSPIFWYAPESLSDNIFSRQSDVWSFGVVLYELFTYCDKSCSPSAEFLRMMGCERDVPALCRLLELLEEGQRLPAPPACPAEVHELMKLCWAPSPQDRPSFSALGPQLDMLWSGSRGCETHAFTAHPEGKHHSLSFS
Description: as §1, §2, §3

[4] = target: TYK2 (Homo sapiens, UniProt P29597); experiment: Biochemical potency on Tyk2, TR-FRET LANCE Ultra kinase assay (examples 1-99); details: ATP at Km (12 μM), read-out: Tyk2 inhibitory activity (pIC50 class) (converted)
Description: as §1, §2, §3

Chain of JAK 1 (P23458 whole entry, canonical isoform): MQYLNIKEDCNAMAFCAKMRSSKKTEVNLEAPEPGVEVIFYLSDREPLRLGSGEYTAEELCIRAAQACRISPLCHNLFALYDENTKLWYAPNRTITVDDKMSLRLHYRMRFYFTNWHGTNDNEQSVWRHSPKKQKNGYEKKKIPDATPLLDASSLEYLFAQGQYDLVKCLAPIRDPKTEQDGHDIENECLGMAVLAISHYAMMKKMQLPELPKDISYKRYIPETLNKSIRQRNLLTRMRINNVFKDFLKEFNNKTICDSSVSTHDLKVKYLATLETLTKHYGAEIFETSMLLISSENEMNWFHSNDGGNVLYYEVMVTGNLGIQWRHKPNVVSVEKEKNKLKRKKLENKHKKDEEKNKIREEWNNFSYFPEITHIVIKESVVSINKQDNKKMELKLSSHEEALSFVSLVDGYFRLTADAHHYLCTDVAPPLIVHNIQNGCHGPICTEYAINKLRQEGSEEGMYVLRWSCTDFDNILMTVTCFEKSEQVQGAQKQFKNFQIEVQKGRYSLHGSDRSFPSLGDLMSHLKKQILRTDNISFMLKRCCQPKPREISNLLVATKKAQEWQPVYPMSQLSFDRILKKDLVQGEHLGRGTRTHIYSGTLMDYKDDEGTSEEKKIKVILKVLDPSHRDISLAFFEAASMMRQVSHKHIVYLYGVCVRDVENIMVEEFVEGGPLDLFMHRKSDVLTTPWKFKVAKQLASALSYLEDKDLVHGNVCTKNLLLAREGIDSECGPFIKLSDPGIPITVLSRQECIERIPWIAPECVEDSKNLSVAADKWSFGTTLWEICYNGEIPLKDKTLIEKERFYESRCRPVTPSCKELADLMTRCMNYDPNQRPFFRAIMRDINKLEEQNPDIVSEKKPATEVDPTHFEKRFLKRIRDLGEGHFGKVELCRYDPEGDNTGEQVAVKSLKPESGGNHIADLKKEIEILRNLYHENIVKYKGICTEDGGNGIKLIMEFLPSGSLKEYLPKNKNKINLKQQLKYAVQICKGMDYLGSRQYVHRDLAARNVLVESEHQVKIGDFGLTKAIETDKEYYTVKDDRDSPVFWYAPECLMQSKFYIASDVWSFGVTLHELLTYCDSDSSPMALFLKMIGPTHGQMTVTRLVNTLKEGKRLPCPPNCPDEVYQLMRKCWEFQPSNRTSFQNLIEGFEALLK
Chain of TYK2 (P29597 whole entry): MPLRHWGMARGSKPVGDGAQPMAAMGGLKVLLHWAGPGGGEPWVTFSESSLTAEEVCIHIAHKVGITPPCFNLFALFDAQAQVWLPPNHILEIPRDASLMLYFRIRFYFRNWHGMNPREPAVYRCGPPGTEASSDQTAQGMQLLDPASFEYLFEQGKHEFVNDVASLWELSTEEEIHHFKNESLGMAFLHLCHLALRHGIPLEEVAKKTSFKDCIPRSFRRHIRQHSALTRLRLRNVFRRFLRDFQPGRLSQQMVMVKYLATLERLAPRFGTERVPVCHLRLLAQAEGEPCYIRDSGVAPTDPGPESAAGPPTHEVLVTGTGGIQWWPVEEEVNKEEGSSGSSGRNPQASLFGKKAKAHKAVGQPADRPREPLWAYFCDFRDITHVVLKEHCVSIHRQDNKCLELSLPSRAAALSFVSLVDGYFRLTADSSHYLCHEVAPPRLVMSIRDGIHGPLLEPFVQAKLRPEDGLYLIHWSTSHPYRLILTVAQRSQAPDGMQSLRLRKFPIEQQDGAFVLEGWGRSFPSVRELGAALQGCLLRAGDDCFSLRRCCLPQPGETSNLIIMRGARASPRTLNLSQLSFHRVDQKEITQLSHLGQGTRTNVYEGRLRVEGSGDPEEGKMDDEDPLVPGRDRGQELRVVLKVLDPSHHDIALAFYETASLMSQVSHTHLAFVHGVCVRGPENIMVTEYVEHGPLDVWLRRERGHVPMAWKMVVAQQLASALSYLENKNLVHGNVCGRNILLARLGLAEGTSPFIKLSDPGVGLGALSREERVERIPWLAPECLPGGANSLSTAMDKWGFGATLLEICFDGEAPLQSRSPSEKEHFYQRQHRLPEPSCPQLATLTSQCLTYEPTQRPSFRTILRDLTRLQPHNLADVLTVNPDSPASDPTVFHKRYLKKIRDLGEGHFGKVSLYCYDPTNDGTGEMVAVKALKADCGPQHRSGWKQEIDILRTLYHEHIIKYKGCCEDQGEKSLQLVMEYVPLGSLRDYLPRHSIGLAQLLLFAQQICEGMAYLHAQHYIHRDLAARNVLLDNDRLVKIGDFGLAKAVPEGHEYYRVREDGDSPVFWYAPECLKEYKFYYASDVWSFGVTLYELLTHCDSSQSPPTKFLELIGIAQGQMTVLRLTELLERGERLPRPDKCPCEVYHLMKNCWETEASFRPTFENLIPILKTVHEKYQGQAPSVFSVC
Chain of JAK 2 (O60674 whole entry): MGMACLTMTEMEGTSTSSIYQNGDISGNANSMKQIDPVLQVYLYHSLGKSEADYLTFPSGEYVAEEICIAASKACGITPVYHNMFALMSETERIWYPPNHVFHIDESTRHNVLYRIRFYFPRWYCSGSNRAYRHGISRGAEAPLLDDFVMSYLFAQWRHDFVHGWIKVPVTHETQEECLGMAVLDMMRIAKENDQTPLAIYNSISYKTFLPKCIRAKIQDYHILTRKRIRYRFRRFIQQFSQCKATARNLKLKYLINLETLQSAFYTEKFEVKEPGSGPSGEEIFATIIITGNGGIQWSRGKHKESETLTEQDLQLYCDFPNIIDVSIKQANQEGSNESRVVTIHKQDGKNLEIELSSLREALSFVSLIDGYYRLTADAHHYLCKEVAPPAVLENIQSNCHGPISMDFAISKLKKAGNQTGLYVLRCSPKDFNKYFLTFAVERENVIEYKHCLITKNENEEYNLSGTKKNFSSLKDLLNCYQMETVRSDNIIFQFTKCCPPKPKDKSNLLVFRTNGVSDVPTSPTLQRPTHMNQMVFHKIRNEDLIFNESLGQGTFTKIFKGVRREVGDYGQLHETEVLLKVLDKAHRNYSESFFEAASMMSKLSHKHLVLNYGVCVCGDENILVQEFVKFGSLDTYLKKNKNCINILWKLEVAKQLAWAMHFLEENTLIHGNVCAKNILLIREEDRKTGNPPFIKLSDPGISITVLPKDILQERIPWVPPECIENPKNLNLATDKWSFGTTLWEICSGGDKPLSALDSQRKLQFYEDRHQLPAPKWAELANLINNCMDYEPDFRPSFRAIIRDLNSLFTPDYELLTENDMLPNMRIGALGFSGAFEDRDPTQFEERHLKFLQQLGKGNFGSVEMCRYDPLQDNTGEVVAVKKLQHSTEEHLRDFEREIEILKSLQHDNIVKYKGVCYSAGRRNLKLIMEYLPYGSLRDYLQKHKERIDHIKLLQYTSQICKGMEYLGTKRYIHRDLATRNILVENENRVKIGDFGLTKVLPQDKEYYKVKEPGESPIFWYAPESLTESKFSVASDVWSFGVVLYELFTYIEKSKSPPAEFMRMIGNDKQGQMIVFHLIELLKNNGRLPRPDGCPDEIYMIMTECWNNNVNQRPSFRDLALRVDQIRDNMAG

| Structure (SMILES) | IC50 [1] [nM] | IC50 [2] [nM] | IC50 [3] [nM] | IC50 [4] [nM] |
| --- | --- | --- | --- | --- |
| COCCS(=O)(=O)c1ccc(OC(F)F)c(-n2nc(C)c3cnc(-c4cnn5cccnc45)cc32)c1 [Example 20, 1-(2-(difluoromethoxy)-5-((2-methoxyethyl)sulfonyl)phenyl)-3-methyl-6-(pyrazolo[1,5-a]pyrimidin-3-yl)-1H-pyrazolo[4,3-c]pyridine] | 5.01 to 50.1 | ≤ 5.01 | ≤ 5.01 | 5.01 to 50.1 |
| COc1cc(O)ccc1-n1nc(C)c2cnc(-c3cnn4cccnc34)cc21 [Example 27, 3-methoxy-4-(3-methyl-6-(pyrazolo[1,5-a]pyrimidin-3-yl)-1H-pyrazolo[4,3-c]pyridin-1-yl)phenol] | 5.01 to 50.1 | ≤ 5.01 | 5.01 to 50.1 | > 50.1 |
| Cc1nn(-c2cc(SC3CC3)ccc2OC(F)F)c2cc(-c3cnn4cccnc34)ncc12 [Example 71, 1-(5-(cyclopropylthio)-2-(difluoromethoxy)phenyl)-3-methyl-6-(pyrazolo[1,5-a]pyrimidin-3-yl)-1H-pyrazolo[4,3-c]pyridine] | 5.01 to 50.1 | 5.01 to 50.1 | 5.01 to 50.1 | > 50.1 |
| Cc1nn(-c2cc(SC3COC3)ccc2OC(F)F)c2cc(-c3cnn4cccnc34)ncc12 [Example 73, 1-(2-(difluoromethoxy)-5-(oxetan-3-ylthio)phenyl)-3-methyl-6-(pyrazolo[1,5-a]pyrimidin-3-yl)-1H-pyrazolo[4,3-c]pyridine] | ≤ 5.01 | ≤ 5.01 | ≤ 5.01 | 5.01 to 50.1 |
| COc1ccc(C(F)(F)F)cc1-n1nc(C)c2cnc(-c3cnn4cccnc34)cc21 [Example 4, 1-(2-methoxy-5-(trifluoromethyl)phenyl)-3-methyl-6-(pyrazolo[1,5-a]pyrimidin-3-yl)-1H-pyrazolo[4,3-c]pyridine] | 5.01 to 50.1 | ≤ 5.01 | 5.01 to 50.1 | > 50.1 |
| COc1ccc(S(=O)(=O)NCCO)cc1-n1nc(C)c2cnc(-c3cnn4cccnc34)cc21 [Example 15, N-(2-hydroxyethyl)-4-methoxy-3-(3-methyl-6-(pyrazolo[1,5-a]pyrimidin-3-yl)-1H-pyrazolo[4,3-c]pyridin-1-yl)benzenesulfonamide] | 5.01 to 50.1 | ≤ 5.01 | 5.01 to 50.1 | > 50.1 |
| CN(C)[C@H]1C[C@@H](NC(=O)c2nn(-c3cc(Cl)ccc3OC(F)F)c3cc(-c4cnn5cccnc45)ncc23)C1 [Example 36, 1-(5-chloro-2-(difluoromethoxy)phenyl)-N-((1s,3s)-3-(dimethylamino)cyclobutyl)-6-(pyrazolo[1,5-a]pyrimidin-3-yl)-1H-pyrazolo[4,3-c]pyridine-3-carboxamide] | 5.01 to 50.1 | 5.01 to 50.1 | 5.01 to 50.1 | > 50.1 |
| COCCSc1ccc(OC(F)F)c(-n2nc(C)c3cnc(Nc4ncc[nH]c4=O)cc32)c1 [Example 93, 3-((1-(2-(difluoromethoxy)-5-((2-methoxyethyl)thio)phenyl)-3-methyl-1H-pyrazolo[4,3-c]pyridin-6-yl)amino)pyrazin-2(1H)-one] | 5.01 to 50.1 | ≤ 5.01 | ≤ 5.01 | 5.01 to 50.1 |
| COc1ccc(Cl)cc1-n1nc(N(C)C)c2cnc(-c3cnn4cccnc34)cc21 [Example 42, 1-(5-chloro-2-methoxyphenyl)-N,N-dimethyl-6-(pyrazolo[1,5-a]pyrimidin-3-yl)-1H-pyrazolo[4,3-c]pyridin-3-amine] | 5.01 to 50.1 | 5.01 to 50.1 | 5.01 to 50.1 | 5.01 to 50.1 |
| COCCS(=O)(=O)c1ccc(OC(F)F)c(-n2nc(C)c3cnc(Nc4ncc[nH]c4=O)cc32)c1 [Example 95, 3-((1-(2-(difluoromethoxy)-5-((2-methoxyethyl)sulfonyl)phenyl)-3-methyl-1H-pyrazolo[4,3-c]pyridin-6-yl)amino)pyrazin-2(1H)-one] | 5.01 to 50.1 | ≤ 5.01 | ≤ 5.01 | 5.01 to 50.1 |
